Active and inactive are the calls of the source. The rule behind the calls is not given here.
What was measured:
DNA topoisomerase 1 = target: T1, DNA topoisomerase 1 (Homo sapiens, UniProt P11387); assay: Inhibition of human Top1B expressed in Top1B deficient Saccharomyces cerevisiae EKY3 assessed as decrease in relaxation of supercoiled pSK DNA preincubated for 15 mins followed by DNA addition and measured after 5 mins by agarose gel electrophoresis
T1 sequence (P11387 whole entry): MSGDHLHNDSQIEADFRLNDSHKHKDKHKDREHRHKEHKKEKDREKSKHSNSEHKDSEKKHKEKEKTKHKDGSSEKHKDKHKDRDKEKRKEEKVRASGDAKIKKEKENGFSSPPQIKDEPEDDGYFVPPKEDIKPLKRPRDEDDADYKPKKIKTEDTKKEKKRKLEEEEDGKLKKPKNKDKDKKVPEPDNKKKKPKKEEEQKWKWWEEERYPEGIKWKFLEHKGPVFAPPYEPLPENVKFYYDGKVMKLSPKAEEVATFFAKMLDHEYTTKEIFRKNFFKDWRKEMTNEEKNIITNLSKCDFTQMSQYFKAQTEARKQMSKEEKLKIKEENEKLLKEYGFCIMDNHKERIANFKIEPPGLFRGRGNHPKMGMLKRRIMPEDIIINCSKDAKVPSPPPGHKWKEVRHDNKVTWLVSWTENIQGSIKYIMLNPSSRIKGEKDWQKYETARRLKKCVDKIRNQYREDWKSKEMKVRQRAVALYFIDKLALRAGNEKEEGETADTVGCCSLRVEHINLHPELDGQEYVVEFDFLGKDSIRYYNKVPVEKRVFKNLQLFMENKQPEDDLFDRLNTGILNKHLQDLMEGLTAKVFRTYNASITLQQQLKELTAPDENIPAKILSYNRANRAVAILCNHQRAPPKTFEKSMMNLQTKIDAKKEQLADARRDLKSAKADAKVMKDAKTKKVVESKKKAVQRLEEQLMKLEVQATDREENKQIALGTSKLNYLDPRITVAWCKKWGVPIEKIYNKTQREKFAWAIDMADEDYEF

[1] = Cytotoxicity against BALB/c mouse splenocytes assessed as reduction in cell viability by alamar blue assay; format: cell-based, Splenocyte
Leishmania infantum [2] = assay: Leishmanicidal activity against amastigote stage of iRFP expressing Leishmania infantum BCN150 infected in BALB/c mouse splenocytes assessed as decrease in parasite viability by fluorescence assay; format: functional, organism-based
[3] = Inhibition of Leishmania donovani Top1B expressed in Top1B deficient Saccharomyces cerevisiae EKY3 assessed as decrease in relaxation of supercoiled pSK DNA preincubated for 15 mins followed by DNA addition and measured after 5 mins by agarose gel electrophoresis
Leishmania donovani [4] = assay: Inhibition of Leishmania donovani Top1B expressed in Top1B deficient Saccharomyces cerevisiae EKY3 assessed as decrease in relaxation of supercoiled pSK DNA preincubated for 15 mins followed by DNA addition and measured after 2 to 16 mins by agarose gel electrophoresis
Leishmania infantum [5] = assay: Leishmanicidal activity against promastigote stage of iRFP expressing Leishmania infantum BCN150 assessed as decrease in parasite viability after 72 hrs by fluorescence assay; format: functional, organism-based; conditions: BCN150, 72 h
Leishmania donovani [6] = assay: Inhibition of Leishmania donovani Top1B expressed in Top1B deficient Saccharomyces cerevisiae EKY3 assessed as decrease in relaxation of supercoiled pSK DNA preincubated for 15 mins followed by DNA addition and measured after 2 to 8 mins by agarose gel electrophoresis
[7] = Selectivity index, ratio of CC50 for BALB/c mouse splenocytes to EC50 for amastigote stage of iRFP expressing Leishmania infantum BCN150 infected in BALB/c mouse splenocytes; format: toxicity, cell-based; conditions: read-out: Ratio CC50/EC50
[8] = target: T2, DNA topoisomerase 1 (Homo sapiens) (UniProt P11387); assay: Inhibition of human Top1B expressed in Top1B deficient Saccharomyces cerevisiae EKY3 assessed as decrease in relaxation of supercoiled pSK DNA preincubated for 15 mins followed by DNA addition and measured after 2 to 8 mins by agarose gel electrophoresis
T2 sequence (whole entry): T1 sequence (P11387 whole entry)

[9] = target: T2, DNA topoisomerase 1 (Homo sapiens); assay: Inhibition of human Top1B expressed in Top1B deficient Saccharomyces cerevisiae EKY3 assessed as decrease in relaxation of supercoiled pSK DNA preincubated for 15 mins followed by DNA addition and measured after 16 mins by agarose gel electrophoresis
Leishmania donovani [10] = assay: Inhibition of Leishmania donovani Top1B expressed in Top1B deficient Saccharomyces cerevisiae EKY3 assessed as decrease in relaxation of supercoiled pSK DNA preincubated for 15 mins followed by DNA addition and measured after 16 mins by agarose gel electrophoresis
[11] = target: T2, DNA topoisomerase 1 (Homo sapiens); assay: Inhibition of human Top1B expressed in Top1B deficient Saccharomyces cerevisiae EKY3 assessed as decrease in relaxation of supercoiled pSK DNA preincubated for 15 mins followed by DNA addition and measured after 8 to 16 mins by agarose gel electrophoresis
Leishmania donovani [12] = assay: Inhibition of Leishmania donovani Top1B expressed in Top1B deficient Saccharomyces cerevisiae EKY3 assessed as decrease in relaxation of supercoiled pSK DNA preincubated for 15 mins followed by DNA addition and measured after 8 to 16 mins by agarose gel electrophoresis
[13] = target: T2, DNA topoisomerase 1 (Homo sapiens); assay: Inhibition of human Top1B expressed in Top1B deficient Saccharomyces cerevisiae EKY3 assessed as decrease in relaxation of supercoiled pSK DNA preincubated for 15 mins followed by DNA addition and measured after 2 to 4 mins by agarose gel electrophoresis
Leishmania donovani [14] = assay: Inhibition of Leishmania donovani Top1B expressed in Top1B deficient Saccharomyces cerevisiae EKY3 assessed as decrease in relaxation of supercoiled pSK DNA preincubated for 15 mins followed by DNA addition and measured after 2 to 4 mins by agarose gel electrophoresis
[15] = target: T2, DNA topoisomerase 1 (Homo sapiens); assay: Inhibition of human Top1B expressed in Top1B deficient Saccharomyces cerevisiae EKY3 assessed as decrease in relaxation of supercoiled pSK DNA preincubated for 15 mins followed by DNA addition and measured after 2 to 16 mins by agarose gel electrophoresis
Leishmania donovani [16] = assay: Inhibition of Leishmania donovani Top1B expressed in Top1B deficient Saccharomyces cerevisiae EKY3 assessed as decrease in relaxation of supercoiled pSK DNA preincubated for 15 mins followed by DNA addition and measured after 4 to 16 mins by agarose gel electrophoresis
Leishmania donovani [17] = assay: Inhibition of Leishmania donovani Top1B expressed in Top1B deficient Saccharomyces cerevisiae EKY3 assessed as decrease in relaxation of supercoiled pSK DNA preincubated for 15 mins followed by DNA addition and measured after 2 mins by agarose gel electrophoresis

Compound | IC50 (DNA topoisomerase 1) | CC50 [1] [µM] | EC50 (Leishmania infantum [2]) [µM] | IC50 [3] | inhibition (Leishmania donovani [4]) | EC50 (Leishmania infantum [5]) [µM] | IC50 (DNA topoisomerase 1; read-out: IC50) [µM] | inhibition (Leishmania donovani [6]) | selectivity ratio [7] | inhibition [8] | IC50 ([3]; read-out: IC50) [µM] | inhibition [9] | inhibition (Leishmania donovani [10]) | inhibition [11] | inhibition (Leishmania donovani [12]) | inhibition [13] | inhibition (Leishmania donovani [14]) | inhibition [15] | inhibition (Leishmania donovani [16]) | inhibition (Leishmania donovani [17])
Fc1ccc(-c2cc(-c3ccc(F)cc3)c3cccc(P(=S)(c4ccccc4)c4ccccc4)c3n2)cc1 | Not Active | 92.1 | > 10 | Not Active | inactive | 11 |  |  |  |  |  |  |  |  |  |  |  |  |  | 
O=P(c1ccccc1)(c1ccccc1)c1cccc2c(-c3ccc(F)cc3)cc(-c3ccc(F)c(F)c3)nc12 |  | 23.9 | 2.15 |  |  | 2.33 | 69.6 | Active | 11.1 | Active | 48.1 | inactive | inactive |  |  |  |  |  |  | 
Fc1ccc(-c2cc(-c3ccc(C(F)(F)F)cc3)nc3c(P(=S)(c4ccccc4)c4ccccc4)cccc23)cc1 |  | 89.7 | > 10 |  |  | 8.83 | 27.4 |  |  |  | 34.3 |  |  | inactive | inactive | Active | Active |  |  | 
O=P(c1ccccc1)(c1ccccc1)c1cccc2c(-c3ccc(F)cc3)cc(-c3ccccc3)nc12 | Not Active | 71 | 1.39 | Not Active | inactive | 6.01 |  |  | 51.1 |  |  |  |  |  |  |  |  |  |  | 
O=P(c1ccccc1)(c1ccccc1)c1cccc2c(-c3ccccc3)cc(-c3ccc4ccccc4c3)nc12 | Not Active | 57.1 | 4.14 | Not Active | inactive | 4.91 |  |  | 13.8 |  |  |  |  |  |  |  |  |  |  | 
Cc1ccc([C@H]2C[C@@H](c3ccc(F)cc3)Nc3c2cccc3P(c2ccccc2)c2ccccc2)cc1 (relative stereo) |  | 47 | 1.79 |  | Active | 20.9 | 44.8 |  | 26.2 |  | 47.9 |  |  |  |  |  |  | Active |  | 
COc1ccc([C@@H]2C[C@H](c3ccc(C)cc3)c3cccc(P(c4ccccc4)c4ccccc4)c3N2)cc1 (relative stereo) |  | > 50 | 5.96 |  | Active | 27.7 | 84.6 |  | > 8.4 |  | 23.6 |  |  |  |  |  |  | Active |  | 
COc1ccccc1[C@@H]1C[C@H](c2ccccc2)c2cccc(P(=O)(c3ccccc3)c3ccccc3)c2N1 (relative stereo) | Not Active | 34.2 | 0.98 | Not Active | inactive | 9.39 |  |  | 34.9 |  |  |  |  |  |  |  |  |  |  | 
COc1ccc([C@@H]2C[C@H](c3ccccc3)c3cccc(P(=S)(c4ccccc4)c4ccccc4)c3N2)cc1 (relative stereo) | Not Active | 34.7 | 0.61 |  |  | 10.7 |  |  | 56.9 |  | 93.7 |  |  |  | inactive |  | Active |  |  | 
O=[N+]([O-])c1ccc([C@@H]2C[C@H](c3ccccc3)c3cccc(P(=S)(c4ccccc4)c4ccccc4)c3N2)cc1 (relative stereo) | Not Active | 57 | 2.73 | Not Active | inactive | 36.4 |  |  | 20.9 |  |  |  |  |  |  |  |  |  |  | 
O=P(c1ccccc1)(c1ccccc1)c1cccc2c1N[C@H](c1ccc(F)c(F)c1)C[C@@H]2c1ccc(F)cc1 (relative stereo) | Not Active | 63.7 | 1.46 | Not Active | inactive | 6.15 |  |  | 43.6 |  |  |  |  |  |  |  |  |  |  | 
Cc1ccc([C@H]2C[C@@H](c3ccc(F)cc3)Nc3c2cccc3P(=O)(c2ccccc2)c2ccccc2)cc1 (relative stereo) | Not Active | 13.8 | 1.85 | Not Active | inactive | 7.1 |  |  | 7.47 |  |  |  |  |  |  |  |  |  |  | 
Fc1ccc([C@H]2C[C@@H](c3ccccc3)Nc3c2cccc3P(c2ccccc2)c2ccccc2)cc1 (relative stereo) |  | 90.6 | 1.75 |  | Active | 3.14 | 42.2 |  | 51.8 |  | 54.2 |  |  |  |  |  |  | Active |  | 
C[C@@H]1[C@H](O)[C@@H](C)/C=C/C=C/C=C/C=C/C=C/C=C/C=C/[C@H](O[C@@H]2O[C@H](C)[C@@H](O)[C@H](N)[C@@H]2O)C[C@@H]2O[C@](O)(C[C@@H](O)C[C@@H](O)[C@H](O)CC[C@@H](O)C[C@@H](O)CC(=O)O[C@H]1C)C[C@H](O)[C@H]2C(=O)O [AMPHOTERICIN B] |  | > 20 | 0.32 |  |  | 0.77 |  |  | 62.5 |  |  |  |  |  |  |  |  |  |  | 
CC[C@@]1(O)C(=O)OCc2c1cc1n(c2=O)Cc2cc3ccccc3nc2-1 [CAMPTOTHECIN] | Not Active |  |  | Not Active |  |  |  |  |  |  |  |  |  |  |  |  |  |  | inactive | Active

— ChEMBL document CHEMBL4382214, “Antileishmanial activity of new hybrid tetrahydroquinoline and quinoline derivatives with phosphorus substituents” (Eur J Med Chem, 2019)
